From paper PMC8624133, “10th Trends in Medical Mycology Held on 8 to 11 October 2021, Aberdeen, Scotland, Organized by the European Confederation of Medical Mycology (ECMM)” (Journal of Fungi, 2021)
In brackets after ≈: the same amount, converted by molar mass. Like-named read-outs stand apart in the source and are kept apart here. Starred links: 1 amine or outer side, 2 acyl side, 3 side chain; linkers in the order of their positions; H or OH if unused. Positions of bridges follow the written chain, without caps; N, C: chain ends. Non-standard residues stand in square brackets, D forms with d. Residues, ends and D or L forms follow the SMILES beside them. *: point of attachment. Orn(4R-OH,5R-OCH2CH2NMe3+) = C[N+](C)(C)CCO[C@@H](N[*:3])[C@H](O)C[C@H](N[*:1])C(=O)[*:2]; hTyr(3S-OH,4S-OH,3'-OSO3H) = N[C@H](C(=O)O)[C@H](O)[C@@H](O)c1ccc(O)c(OS(=O)(=O)O)c1; pTerphenylCO(4''-OnC5H11) = CCCCCOc1ccc(-c2ccc(-c3ccc(C(=O)*)cc3)cc2)cc1; Orn(4R-OH,5R-OH) = O=C([C@H](C[C@@H](O)[C@@H](O)N[*:3])N[*:1])[*:2]; hTyr(3S-OH,4S-OH) = N[C@H](C(=O)O)[C@H](O)[C@@H](O)c1ccc(O)cc1; Pro(3S-OH,4S-Me) = C[C@H]1CN[C@H](C(=O)O)[C@H]1O; X1 = CCCCCOc1ccc(-c2cc(-c3ccc(C(=O)*)cc3)no2)cc1; Gln(3R-OH) = NC(=O)C[C@@H](O)[C@H](N)C(=O)O; Hyp = O=C(O)[C@@H]1C[C@@H](O)CN1

Assays:
[1] = tested on: C. auris clinical strains; experiment: organism not typed; type: cell-based, Candida auris; details: range, 78 strains from patients with COVID-19
Candida auris isolates = experiment: microbe, parasite or virus in culture; type: cell-based
[2] = tested on: C. albicans and C. glabrata; experiment: FUNGINOS candidemia survey, susceptibility according to CLSI; type: cell-based; details: share of isolates
C. krusei [3] = experiment: ARIA surveillance, CLSI M27 broth microdilution; type: cell-based, Candida krusei
Method: Materials & Methods: Isolates (n = 730) were collected and re-identified by MALDI-TOF or molecular methods. […] Percentage susceptibility (%S) or wild-type (%WT) were calculated according to CLSI breakpoints (CLSI supplement M60) or epidemiological cut-off values (CLSI supplement M59), respectively.

[4] = tested on: invasive C. glabrata strains; experiment: YeastOne Sensititre colorimetric broth microdilution; type: cell-based, Candida glabrata; details: Nakaseomyces glabratus
Method: Material and Method: Thirty-six clinical isolates of invasive C. glabrata strains were analyzed in this study. Minimum inhibitory concentrations (MICs) were determined using colorimetric broth microdilution (YeastOneSensititre, Trek diagnostics). Genomic DNA was isolated using Qiagen DNA extraction Kit. The FKS1 and FKS2 gene fragment were amplified and PCR products were purified prior to sequencing. Double-strand sequencing of PCR products was performed using Sanger sequencing methodology. Sequences were analyzed with MEGA-6 software to identify specific SNP combination against wild-type sequences of C. glabrata.

Candida albicans (CA) = experiment: Post-antifungal effect (PAFE); type: cell-based; details: CA clinical isolate; all concentrations (1×, 4×, 16× bMIC), 1 h exposure
Method: (§1) Materials &Methods: Six Candida spp. […] For PAFE determinations, antifungal concentrations of 1×, 4×, and 16× bMiC were used. A starting inoculum of 1–[…] CFU/mLwas added to RPMl with the antifungal agent. Post 1 h exposure, cells were washed 3 times and resuspended in 10 mL of pre-warmed RPMl. Colony counts were performed at to, 1 h before and after final washt t2, t4, t8, t12, t24 and t48 h. PAFE was calculated as the difference in time required for isolates to rrow1-logio following the final cell wash compared to the growth control.

C. glabrata (CGLA) = experiment: Post-antifungal effect (PAFE); type: cell-based, Candida glabrata
Method: as §1

C. parapsilosis (CPRP) = experiment: Post-antifungal effect (PAFE); type: cell-based, Candida parapsilosis
Method: as §1

C. albicans = type: cell-based, Candida albicans
C. parapsilosis = type: cell-based, Candida parapsilosis
C. glabrata = type: cell-based, Candida glabrata
C. tropicalis = type: cell-based, Candida tropicalis
C. krusei [5] = type: cell-based, Candida krusei
Other species of Candida = type: cell-based, Candida spp.
C. guilliermondii = experiment: EUCAST E. Def 7.3.2 microdilution; type: cell-based, Candida guilliermondii; details: n = 62
C. fermentati = experiment: EUCAST E. Def 7.3.2 microdilution; type: cell-based, Candida fermentati; details: n = 2
[6] = Open-label single-dose study in hepatic impairment; type: in vivo, human
Method: Materials &Methods: The safety, tolerability, and PK of rezafungin in subjects with moderate (Group 1a) and severe (Group 2a) HI (Child-Pugh class Band C) and healthysubjects (HS, Groups 1b and 2b) was investigated in this open-label, single-dose study. Each Hl group enrolled was matched to a separate HS group (n = 8 each 32 total) by age, sex and body mass index (BMI) and received a single 400-mg intravenous 1 h infusion of RZF.Plasma PK sampling was performed at various time points through 336 h post- dose. Rezafungin PKparameters were derived using non-compartmental analysis. Safety and tolerability were assessed throughout the study.

[7] = both CGLA strains, all concentrations

Question: For `CCCCCOc1ccc(-c2cc(-c3ccc(C(=O)N[C@H]4C[C@@H](O)[C@@H](O)NC(=O)[C@@H]5[C@@H](O)[C@@H](C)CN5C(=O)[C@H]([C@H](O)CC(N)=O)NC(=O)[C@H]([C@H](O)[C@@H](O)c5ccc(O)c(OS(=O)(=O)O)c5)NC(=O)[C@@H]5C[C@@H](O)CN5C(=O)[C@H]([C@@H](C)O)NC4=O)cc3)no2)cc1` [micafungin] (X1-[Orn(4R-OH,5R-OH)]T[Hyp][hTyr(3S-OH,4S-OH,3'-OSO3H)][Gln(3R-OH)][Pro(3S-OH,4S-Me)]; lactam 1-C), which MIC [1] is on record?
Answer: 0.06 to 1 µg/mL (≈ 0.0472 to 0.787 µM)

Question: And the “categorised as resistant on MIC” value (Candida auris isolates; CDC guidelines)?
Answer: 1.4%

Question: What about the MIC (Candida auris isolates; Candidozyma auris, […], IQR given, read-out: median MIC) of the same molecule?
Answer: 0.12 µg/mL (≈ 0.0945 µM)

Question: And the non-susceptibility [2]?
Answer: 2%

Question: What about the susceptibility (C. krusei [3]; Argentina, Australia, Italy and Taiwan) of the same molecule?
Answer: 100%

Question: And the susceptibility (C. krusei [3]; USA)?
Answer: 73.3%

Question: What about the MIC ([4]; 36 clinical isolates, read-out: median (Min–Max) MIC) of the same molecule?
Answer: 0.015 µg/mL

Question: And the MIC ([4]; isolate with FKS2 I661T)?
Answer: 0.015 µg/mL

Question: What about the PAFE (Candida albicans (CA)) of the same molecule?
Answer: > 14.9 h

Question: And the PAFE (C. glabrata (CGLA); CGLA #3 isolate, 1× bMIC)?
Answer: 20.4 h

Question: And the PAFE (C. glabrata (CGLA); [7])?
Answer: > 40 h

Question: And the PAFE (C. parapsilosis (CPRP); CPRP ATCC 22019, 1× and 4× bMIC)?
Answer: no micafungin PAFE was observed

Question: And the PAFE (C. parapsilosis (CPRP); CPRP ATCC 22019, 16× bMIC)?
Answer: 1.8 h

Question: And the PAFE (C. parapsilosis (CPRP); CPRP clinical isolate, 1× bMIC)?
Answer: 1.6 h

Question: And the PAFE (C. parapsilosis (CPRP); CPRP clinical isolate, 4× bMIC)?
Answer: 7.4 h

Question: What about the PAFE (C. parapsilosis (CPRP); CPRP clinical isolate, 16× bMIC) of the same molecule?
Answer: 31.3 h

Question: And the “I (intermediate) isolates, n (%)” value (C. albicans)?
Answer: 1 (0.7%)

Question: What about the “R (resistant) isolates, n (%)” value (C. albicans) of the same molecule?
Answer: 1 (0.7%)

Question: What about the “S (sensitive) isolates, n (%)” value (C. albicans) of the same molecule?
Answer: 136 (98.6%)

Question: And the “I (intermediate) isolates, n (%)” value (C. parapsilosis)?
Answer: 0 (0%)

Question: What about the “R (resistant) isolates, n (%)” value (C. parapsilosis) of the same molecule?
Answer: 0 (0%)

Question: What about the “S (sensitive) isolates, n (%)” value (C. parapsilosis) of the same molecule?
Answer: 132 (100%)

Question: And the “I (intermediate) isolates, n (%)” value (C. glabrata)?
Answer: 0 (0%)

Question: What about the “R (resistant) isolates, n (%)” value (C. glabrata) of the same molecule?
Answer: 0 (0%)

Question: And the “S (sensitive) isolates, n (%)” value (C. glabrata)?
Answer: 55 (100%)

Question: What about the “I (intermediate) isolates, n (%)” value (C. tropicalis) of the same molecule?
Answer: 0 (0%)

Question: What about the “R (resistant) isolates, n (%)” value (C. tropicalis) of the same molecule?
Answer: 0 (0%)

Question: And the “S (sensitive) isolates, n (%)” value (C. tropicalis)?
Answer: 44 (100%)

Question: And the “S (sensitive) isolates, n (%)” value (C. krusei [5])?
Answer: 3 (100%)

Question: And the “I (intermediate) isolates, n (%)” value (Other species of Candida)?
Answer: 0 (0%)

Question: And the “R (resistant) isolates, n (%)” value (Other species of Candida)?
Answer: 0 (0%)

Question: And the “S (sensitive) isolates, n (%)” value (Other species of Candida)?
Answer: 18 (100%)

Question: And the MIC50 (C. guilliermondii; Meyerozyma guilliermondii)?
Answer: 0.25 µg/mL (≈ 0.197 µM)

Question: What about the MIC90 (C. guilliermondii; Meyerozyma guilliermondii) of the same molecule?
Answer: 0.5 µg/mL (≈ 0.394 µM)

Question: What about the GM (C. guilliermondii) of the same molecule?
Answer: 0.228 µg/mL

Question: And the “MIC Range” value (C. guilliermondii)?
Answer: 0.008 to 0.5 µg/mL

Question: What about the GM (C. fermentati) of the same molecule?
Answer: 0.125 µg/mL

Question: What about the “MIC Range” value (C. fermentati) of the same molecule?
Answer: 0.125 µg/mL (≈ 0.0984 µM)

Question: With `CCCCCOc1ccc(-c2ccc(-c3ccc(C(=O)N[C@H]4C[C@@H](O)[C@@H](OCC[N+](C)(C)C)NC(=O)[C@@H]5[C@@H](O)[C@@H](C)CN5C(=O)[C@H]([C@@H](C)O)NC(=O)[C@H]([C@H](O)[C@@H](O)c5ccc(O)cc5)NC(=O)[C@@H]5C[C@@H](O)CN5C(=O)[C@H]([C@@H](C)O)NC4=O)cc3)cc2)cc1` [rezafungin, Rezafungin] ({pTerphenylCO(4''-OnC5H11)}-[Orn(4R-OH,5R-OCH2CH2NMe3+)]T[Hyp][hTyr(3S-OH,4S-OH)]T[Pro(3S-OH,4S-Me)]; lactam 1-C) as the molecule, how does the “AEs, moderate hepatic impairment group” value ([6]; all mild severity) read?
Answer: 5

Question: And the “AEs, severe hepatic impairment group” value ([6]; all moderate severity, unrelated)?
Answer: 3

Question: What about the “AEs, all groups” value ([6]; in 7 of 32 subjects) of the same molecule?
Answer: 9

Question: And the “mean exposure lower than in healthy subjects” value ([6]; moderate or severe HI, single 400-mg intravenous 1 h infusion, AUC, Cmax)?
Answer: ~ 30%

Question: And the mean half-life ([6]; range across groups, non-compartmental analysis)?
Answer: 110 to 124 h

Question: What about the PAFE (Candida albicans (CA)) of the same molecule?
Answer: > 14.9 h

Question: What about the PAFE (C. glabrata (CGLA); CGLA #3 isolate, 1× bMIC) of the same molecule?
Answer: > 46.7 h

Question: What about the PAFE (C. glabrata (CGLA); [7]) of the same molecule?
Answer: > 40 h

Question: And the PAFE (C. parapsilosis (CPRP); CPRP ATCC 22019, all concentrations)?
Answer: > 40 h
